Experimental data as given in ChEMBL document CHEMBL5528049, “Discovery of (4-Pyrazolyl)-2-aminopyrimidines as Potent and Selective Inhibitors of Cyclin-Dependent Kinase 2” (J Med Chem, 2024).
Values after ≈ are worked out from the molar mass of the structure shown.

What was measured:
[1] = Solubility of compound in SGF by HPLC analysis
[2] = Apparent permeability from apical to basolateral side in human Caco-2 cells at 50 uM incubated for 120 mins by LCMS analysis
[3] = Protein binding in human plasma assessed as free fraction incubated for 2 hrs by LC-MS/MS analysis; type: ADME, cell-free
[4] = Intrinsic clearance in human liver microsomes at 1 uM measured upto 30 mins by LC/MS analysis; type: ADME, Microsome; settings: read-out: CLH (converted)
[5] = target: Cyclin-dependent kinase 2/cyclin E1 (Homo sapiens, UniProt P24941); assay: Inhibition of N-terminal GST-tagged full-length human CDK2(1 to 298 residues) /FLAG-tagged human Cyclin E1 (1 to 410 residues) expressed in baculovirus-infected Sf21 cells incubated for 60 mins in presence of ATP by HTRF assay
[6] = target: Tyrosine-protein kinase JAK2 (Homo sapiens, UniProt O60674); assay: Inhibition of JAK2 (unknown origin) incubated for 90 mins in presence of ATP by fluorescence microplate reader
[7] = target: Cyclin-dependent kinase 4/cyclin D1 (Homo sapiens, UniProt P11802); assay: Inhibition of N-terminal GST-tagged human CDK4 (4 to 303 residues)/N-terminal GST-tagged human Cyclin D1 (4 to 295 residues) expressed in Sf9 insect cells incubated for 60 mins in presence of ATP by HTRF assay
[8] = target: Cyclin-dependent kinase 2 (Homo sapiens, UniProt P24941); assay: Inhibition of CDK2 in human whole blood spiked with CCNE1-amplified human COV318 cells assessed as reduction in retinoblastoma protein phosphorylation at S780 residue incubated overnight by HTRF microplate reader; type: cell-based
[9] = organism: Homo sapiens; assay: Selectivity index, ratio of IC50 for inhibition of N-terminal GST-tagged full length human CDK1 (1 to 297 residues)/human Cyclin B1 (1 to 433 residues) expressed in baculovirus infected Sf21 cells to IC50 for inhibition of N-terminal GST-tagged full-length human CDK2(1 to 298 residues) /FLAG-tagged human Cyclin E1 (1 to 410 residues) expressed in baculovirus-infected Sf21 cells
[10] = target: CDK6/cyclin D3 (Homo sapiens, UniProt Q00534); assay: Inhibition of N-terminal GST-tagged human CDK6 (1 to 326 residues)/N-terminal 6-His fused human Cyclin D3 (1 to 292 residues) expressed in Sf9 insect cells incubated for 60 mins by HTRF assay
[11] = target: Cyclin-dependent kinase 1/cyclin B1 (Homo sapiens, UniProt P06493); assay: Inhibition of N-terminal GST-tagged full length human CDK1 (1 to 297 residues)/human Cyclin B1 (1 to 433 residues) expressed in baculovirus infected Sf21 cells incubated for 60 mins in presence of ATP by HTRF assay
[12] = Half-life in Sprague-Dawley rat at 0.43 mg/kg, iv administered as cassette dose and measured upto 24 hrs by LC-MS/MS analysis; type: ADME, organism-based; settings: in vivo
[13] = Cmax in cynomolgus monkey at 3 mg/kg, po administered as cassette dose and measured upto 24 hrs by LC-MS/MS analysis; type: ADME, organism-based, Macaca fascicularis; settings: in vivo
[14] = Oral bioavailability in Sprague-Dawley rat at 3 mg/kg administered as cassette dose and measured upto 24 hrs by LC-MS/MS analysis; type: ADME, organism-based; settings: in vivo
[15] = Hepatic blood flow in Sprague-Dawley rat at 0.43 mg/kg, iv administered as cassette dose and measured upto 24 hrs by LC-MS/MS analysis; type: ADME, organism-based; settings: in vivo
[16] = AUC in Sprague-Dawley rat at 3 mg/kg, po administered as cassette dose and measured upto 24 hrs by LC-MS/MS analysis; type: ADME, organism-based; settings: in vivo
[17] = Volume of distribution at steady state in cynomolgus monkey at 0.5 mg/kg, iv administered as cassette dose and measured upto 24 hrs by LC-MS/MS analysis; type: ADME, organism-based, Macaca fascicularis; settings: in vivo, read-out: Vdss
[18] = AUC in cynomolgus monkey at 3 mg/kg, po administered as cassette dose and measured upto 24 hrs by LC-MS/MS analysis; type: ADME, organism-based, Macaca fascicularis; settings: in vivo
[19] = Cmax in Sprague-Dawley rat at 3 mg/kg, po administered as cassette dose and measured upto 24 hrs by LC-MS/MS analysis; type: ADME, organism-based; settings: in vivo
[20] = Half-life in cynomolgus monkey at 0.5 mg/kg, iv administered as cassette dose and measured upto 24 hrs by LC-MS/MS analysis; type: ADME, organism-based, Macaca fascicularis; settings: in vivo
[21] = Oral bioavailability in cynomolgus monkey at 3 mg/kg administered as cassette dose and measured upto 24 hrs by LC-MS/MS analysis; type: ADME, organism-based, Macaca fascicularis; settings: in vivo
[22] = Volume of distribution at steady state in Sprague-Dawley rat at 0.43 mg/kg, iv administered as cassette dose and measured upto 24 hrs by LC-MS/MS analysis; type: ADME, organism-based; settings: in vivo, read-out: Vdss
[23] = Hepatic blood flow in cynomolgus monkey at 0.5 mg/kg, iv administered as cassette dose and measured upto 24 hrs by LC-MS/MS analysis; type: ADME, organism-based, Macaca fascicularis; settings: in vivo
[24] = Cmax in cynomolgus monkey at 1.5 mg/kg, po administered as cassette dose and measured upto 24 hrs by LC-MS/MS analysis; type: ADME, organism-based, Macaca fascicularis; settings: in vivo
[25] = Oral bioavailability in cynomolgus monkey at 1.5 mg/kg administered as cassette dose and measured upto 24 hrs by LC-MS/MS analysis; type: ADME, organism-based, Macaca fascicularis; settings: in vivo
[26] = Half-life in Sprague-Dawley rat at 0.5 mg/kg, iv administered as cassette dose and measured upto 24 hrs by LC-MS/MS analysis; type: ADME, organism-based; settings: in vivo
[27] = AUC in cynomolgus monkey at 1.5 mg/kg, po administered as cassette dose and measured upto 24 hrs by LC-MS/MS analysis; type: ADME, organism-based, Macaca fascicularis; settings: in vivo
[28] = Hepatic blood flow in Sprague-Dawley rat at 0.5 mg/kg, iv administered as cassette dose and measured upto 24 hrs by LC-MS/MS analysis; type: ADME, organism-based; settings: in vivo
[29] = Volume of distribution at steady state in Sprague-Dawley rat at 0.5 mg/kg, iv administered as cassette dose and measured upto 24 hrs by LC-MS/MS analysis; type: ADME, organism-based; settings: in vivo, read-out: Vdss

N#Cc1cnc(NC2CCN(S(=O)(=O)c3ccccn3)CC2)nc1-c1cnn(CC(F)(F)F)c1
solubility [1]: < 1 µg/mL | Papp A→B at 2 h, 50 µM [2]: 18 ×10⁻⁶ cm/s | fraction unbound at 2 h [3]: 0.035 | CLint scaled at 1 µM [4]: 13.3 mL/min/kg

Cc1cnc(Nc2ccc(NS(C)(=O)=O)cc2)nc1-c1cnn(C(CC#N)C2CCCC2)c1 (racemic)
IC50 [5]: 607 nM | IC50 [6]: < 0.001 µM

CS(=O)(=O)N1CCC(Nc2ncc(C(F)(F)F)c(-c3cnn(-c4ccccc4Cl)c3)n2)CC1
IC50 [5]: 0.56 nM | IC50 [7]: 10 nM | IC50 [8]: 823 nM | Ratio IC50 [9]: 160 | IC50 [10]: 24 nM | IC50 [11]: 90 nM | CLint scaled at 1 µM [4]: 16.7 mL/min/kg

CS(=O)(=O)N1CCC(Nc2ncc(C(F)(F)F)c(-c3cnn(-c4ccc(C#N)cc4Cl)c3)n2)CC1
fraction unbound at 2 h [3]: 0.012 | CLint scaled at 1 µM [4]: 8.33 mL/min/kg

Cn1cnc(S(=O)(=O)N2CCC(Nc3ncc(C#N)c(-c4cnn(CC(F)(F)F)c4)n3)CC2)c1
solubility [1]: 5 µg/mL (≈ 10.1 µM) | Papp A→B at 2 h, 50 µM [2]: 0.6 ×10⁻⁶ cm/s | CLint scaled at 1 µM [4]: < 8.33 mL/min/kg

CN1CCC(n2cc(-c3nc(NC4CCN(S(C)(=O)=O)CC4)ncc3C(F)(F)F)cn2)CC1
IC50 [5]: 6.1 nM | IC50 [7]: 20 nM | solubility [1]: > 400 µg/mL | IC50 [8]: 708 nM | Ratio IC50 [9]: 29 | IC50 [10]: 153 nM | IC50 [11]: 174 nM | CLint scaled at 1 µM [4]: 11.7 mL/min/kg

Cn1cc(S(=O)(=O)N2CCC(Nc3ncc(C(F)(F)F)c(-c4cnn(CC(F)(F)F)c4)n3)CC2)cn1
solubility [1]: < 1 µg/mL | Papp A→B at 2 h, 50 µM [2]: 19 ×10⁻⁶ cm/s | fraction unbound at 2 h [3]: 0.059 | CLint scaled at 1 µM [4]: 8.33 mL/min/kg

Cn1cnc(S(=O)(=O)N2CCC(Nc3ncc(C(F)(F)F)c(-c4cnn(CC(F)(F)F)c4)n3)CC2)c1
half-life [12]: 198 min | Cmax [13]: 778 nM | solubility [1]: 322 µg/mL (≈ 598 µM) | bioavailability [14]: 48% | QH [15]: 12% | AUC at 24 h [16]: 6.95 µM·h | Vd [17]: 0.37 L/kg | AUC at 24 h [18]: 7.59 µM·h | Cmax [19]: 813 nM | half-life [20]: 192 min | Papp A→B at 2 h, 50 µM [2]: 5.4 ×10⁻⁶ cm/s | fraction unbound at 2 h [3]: 0.076 | bioavailability [21]: 8% | CLint scaled at 1 µM [4]: 10 mL/min/kg | Vd [22]: 1.4 L/kg | QH [23]: 4.3%

CS(=O)(=O)N1CCC(Nc2ncc(C(F)(F)F)c(-c3cnn(C4CCCCC4)c3)n2)CC1
IC50 [5]: 2 nM | IC50 [7]: 3.2 nM | solubility [1]: 11 µg/mL (≈ 23.3 µM) | IC50 [8]: 5050 nM | Ratio IC50 [9]: 130 | IC50 [10]: 10 nM | IC50 [11]: 257 nM | CLint scaled at 1 µM [4]: 18.3 mL/min/kg

CNCc1ccc(-n2cc(-c3nc(NC4CCN(S(C)(=O)=O)CC4)ncc3C#N)cn2)c(Cl)c1
Cmax [24]: 93 nM | bioavailability [14]: 69% | bioavailability [25]: 20% | AUC at 24 h [16]: 3.5 µM·h | half-life [26]: 228 min | AUC at 24 h [27]: 0.923 µM·h | Vd [17]: 4.4 L/kg | QH [28]: 36% | Vd [29]: 5.7 L/kg | Cmax [19]: 412 nM | half-life [20]: 360 min | fraction unbound at 2 h [3]: 0.33 | CLint scaled at 1 µM [4]: 10 mL/min/kg | QH [23]: 26%

CS(=O)(=O)N1CCC(Nc2ncc(C(F)(F)F)c(-c3cnn(-c4ccccc4F)c3)n2)CC1
IC50 [7]: 14 nM | solubility [1]: 46 µg/mL (≈ 94.9 µM) | IC50 [8]: 5110 nM | IC50 [10]: 31 nM | CLint scaled at 1 µM [4]: < 8.33 mL/min/kg

CC(C)(O)Cn1cc(-c2nc(NC3CCN(S(=O)(=O)C4CC4)CC3)ncc2C#N)cn1
solubility [1]: 41 µg/mL (≈ 92 µM) | Papp A→B at 2 h, 50 µM [2]: 4.3 ×10⁻⁶ cm/s | fraction unbound at 2 h [3]: 0.35 | CLint scaled at 1 µM [4]: < 8.33 mL/min/kg

CC(C)(O)Cn1cc(-c2nc(NC3CCN(S(C)(=O)=O)CC3)ncc2C(F)(F)F)cn1
IC50 [5]: 0.42 nM | IC50 [7]: 37 nM | solubility [1]: 842 µg/mL (≈ 1820 µM) | IC50 [8]: 1210 nM | Ratio IC50 [9]: 150 | IC50 [10]: 160 nM | IC50 [11]: 63 nM | CLint scaled at 1 µM [4]: < 8.33 mL/min/kg

CS(=O)(=O)N1CCC(Nc2ncc(C(F)(F)F)c(-c3cnn(C4CCOCC4)c3)n2)CC1
IC50 [5]: 3.2 nM | Ratio IC50 [9]: 130 | IC50 [11]: 407 nM | IC50 [6]: > 10 µM

CS(=O)(=O)N1CCC(Nc2ncc(Cl)c(-c3cnn(C4CCOCC4)c3)n2)CC1
IC50 [5]: 16 nM | IC50 [11]: 1020 nM | IC50 [6]: > 10 µM

CS(=O)(=O)N1CCC(Nc2ncc(C(F)(F)F)c(-c3cnn(CC(F)(F)F)c3)n2)CC1
IC50 [5]: 1.8 nM | IC50 [7]: 11 nM | solubility [1]: 3 µg/mL (≈ 6.35 µM) | IC50 [8]: 709 nM | Ratio IC50 [9]: 110 | IC50 [10]: 22 nM | IC50 [11]: 205 nM | CLint scaled at 1 µM [4]: < 8.33 mL/min/kg
